The values that follow come from patent US20100278733A1, “COMPOSITION FOR DIAGNOSIS OF AMYLOID-RELATED DISEASE” (priority 2007, published 2010).

The target in series [1] is T1, Aβ(1-40) aggregate (Homo sapiens, UniProt P05067).
T1 construct: Amyloid β protein (Human, 1-40) [HCl form]; purchased Peptide Institute, Inc
The series can be described thus: In-vitro binding experiment of chalcone derivatives using Aβ aggregate (Reference Example 1). Conditions: in words; radioactivity on filter in presence vs absence of Aβ aggregate, FIG. 14; compound numbers of Reference Example 1. How it is done:
As a radioactive iodine-125 (^125I), IODINE-125 (74 MBq) manufactured by Amersham Biosciences was used. Reverse phase HPLC was performed at a flow rate of 1.0 mL/min using Cosmosil 5C18-AR Column (4.6×150 mm) manufactured by Nacalai Tesque Inc. and ultrapure water (A) and acetonitrile (B) (A:B=40:60) as an elution solvent. ^1H-NMR was measured using Varian Gemini 300 and tetramethylsilane as an internal standard substance. Mass spectrometry was performed using JEOL IMS-DX300. Amyloid β protein (Human, 1-40) [HCl form] and Amyloid β protein (Human, 1-42) [TFA form] were purchased from Peptide Institute, Inc., and special grade reagents were used as other reagents.
The Aβ aggregate was dissolved in a buffer containing 10 mM sodium phosphate and 1 mM EDTA (pH 7.4) at a concentration of 0.5 mg/mL, and the mixture was incubated at 37° C. for 36 to 42 h. The binding experiment was performed using 12×75 mm borosilicate glass tubes. 900 μL of 10% ethanol solution, 50 μL (57 nM) of an Aβ(1-40) aggregate solution, and 50 μL of [^125I]Compound 7 or 12 having various concentrations were mixed, and the mixture was allowed to stand at room temperature for 3 h. […] The radioactivities of substances remaining in the filter used for filtration were measured with a γ counter.

Series [2] is described as follows: In-vivo radioactivity distribution experiment using normal mice (Example 2). To be noted: Example 2 numbering; for In-vivo radioactivity distribution: blood / In-vivo radioactivity distribution: brain / In-vivo radioactivity distribution: heart / In-vivo radioactivity distribution: intestine / In-vivo radioactivity distribution: kidney / In-vivo radioactivity distribution: liver / In-vivo radioactivity distribution: lung / In-vivo radioactivity distribution: pancreas / In-vivo radioactivity distribution: spleen / In-vivo radioactivity distribution: stomach: normal mice, intravenous.

Series [3] has as its target T2, Aβ(1-42) aggregate (Homo sapiens, UniProt P05067).
T2 construct: Amyloid β protein (Human, 1-42) [TFA form] was purchased from Peptide Institute, Inc; purchased Peptide Institute, Inc
The series can be described thus: Binding inhibition experiment using Aβ(1-42) aggregate, Ki values (Example 2). To be noted: radioactive ligand [^125I]CL-NMe2; mean ± standard error of 3 experiments (compound 4: 6 experiments); compound numbers of Example 2; read-out: Ki values calculated by inhibition experiment.

For series [4], the target named is T2, Aβ(1-42) aggregate. Kind of series: Examination of binding site by binding inhibition experiment using Aβ(1-42) aggregate (Example 2). To be noted: FIG. 10, compound numbers of Example 2, read-out: Ki for inhibition of binding of [^125I]CL-NMe2 to the Aβ(1-42) aggregate. As to the method: Aβ(1-42) was dissolved in 10 mM phosphate buffer containing 1 mM EDTA (pH 7.4) at a concentration of 0.25 mg/mL, and the mixture was incubated at 37° C. for 42 h to prepare an Aβ(1-42) aggregate.
[…] of 10% EtOH solution, […] of [^125I]CL-NMe2 solution, […] of a solution of congo red, thioflavine T, or compound 14 at various concentrations (0 to 20 mM) were mixed, […] of an Aβ(1-42) aggregate solution was finally added, and the mixture was allowed to stand at room temperature for 3 h. Aβ(1-42) aggregate-bound compounds and nonbound compounds were separated with a Brandel M-24R cell harvester using a Whatman GF/B filter. Radioactivities remaining on the filter after filtration were measured with a γ-counter, and inhibition curves were created using Graph Pad Prism 4.0 to calculate inhibition constants.

In series [5] the test system is senile plaque amyloid and vascular amyloid. The series can be described thus: Fluorescence staining experiment using brain tissue sections of Alzheimer's disease model mice. To be noted: in words; 100 μM in 50% aqueous ethanol, fluorescence microscope, FIG. 11. The series is classed as binding, APP/PS1 double transgenic mouse. As to the method:
As an Alzheimer's disease model mouse, APP/PS1 double transgenic mouse was used. The brain was removed, immobilized with 10% formaldehyde, dehydrated with alcohol and xylene, and then paraffin-embedded. The paraffin-embedded brain tissue was cut into a 5-μm section, and the section was treated with xylene, alcohol, and water and deparaffinized. The section was incubated in PBS for 30 min and then in solutions of various chalcone derivatives (100 μM) in 50% aqueous ethanol for 10 min. The section was washed with 50% ethanol and PBS and then examined with a fluorescence microscope (Leica TCS SP2).

T2 sequence (P05067 672-713 limits assumed): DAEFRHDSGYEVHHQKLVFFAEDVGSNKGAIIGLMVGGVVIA
T1 sequence (P05067 672-711 limits assumed): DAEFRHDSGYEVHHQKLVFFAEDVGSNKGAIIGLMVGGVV

Regarding `CN(C)c1ccc(/C=C/C(=O)c2ccc(I)cc2)cc1` [Compound 12 in Reference Example 1], the “binding property to the Aβ aggregate” value in series [1] was “strong binding property”.

Take `CN(C)c1ccc(C=CC(=O)c2ccc(I)s2)cc1` [Compound 14 in Example 2, 1-(5-iodo-2-thienyl)-3-(4-dimethylaminophenyl)-prop-2-en-1-one]: the “stability in the organism” value in series [2] (in words: radioactivity accumulation in the stomach, retention in blood, deiodination) is “instability in the organism”. In addition, in series [2] (2 min), the “In-vivo radioactivity distribution: blood” value is listed as 4.91 (0.71) percent of the dose/g, the “In-vivo radioactivity distribution: brain” value is listed as 2.40 (0.30) percent of the dose/g, the “In-vivo radioactivity distribution: heart” value was 5.05 (0.95) percent of the dose/g and the “In-vivo radioactivity distribution: intestine” value is 1.73 (0.21) percent of the dose/g. Besides, in series [2] (2 min), the “In-vivo radioactivity distribution: kidney” value is 7.41 (1.54) percent of the dose/g, the “In-vivo radioactivity distribution: liver” value is recorded as 9.57 (2.00) percent of the dose/g, the “In-vivo radioactivity distribution: lung” value is 8.29 (0.99) percent of the dose/g and the “In-vivo radioactivity distribution: pancreas” value is 3.82 (0.57) percent of the dose/g. In addition, in series [2] (2 min), the “In-vivo radioactivity distribution: spleen” value is 4.05 (0.63) percent of the dose/g and the “In-vivo radioactivity distribution: stomach” value is 1.21(0.27) percent of the dose. In series [2] (10 min), the “In-vivo radioactivity distribution: blood” value is given as 3.58 (0.35) percent of the dose/g, the “In-vivo radioactivity distribution: brain” value is reported as 0.75 (0.31) percent of the dose/g, the “In-vivo radioactivity distribution: heart” value is on record as 3.02 (0.60) percent of the dose/g and the “In-vivo radioactivity distribution: intestine” value was 2.57 (0.53) percent of the dose/g. For the same molecule, in series [2] (10 min), the “In-vivo radioactivity distribution: kidney” value is 4.66 (0.68) percent of the dose/g, the “In-vivo radioactivity distribution: liver” value is 7.10 (1.08) percent of the dose/g, the “In-vivo radioactivity distribution: lung” value is given as 5.17 (0.69) percent of the dose/g and the “In-vivo radioactivity distribution: pancreas” value was 1.94 (0.80) percent of the dose/g. In addition, in series [2] (10 min), the “In-vivo radioactivity distribution: spleen” value was 5.48 (1.02) percent of the dose/g and the “In-vivo radioactivity distribution: stomach” value is listed as 5.29 (1.24) percent of the dose. In addition, in series [2] (30 min), the “In-vivo radioactivity distribution: blood” value is reported as 2.92 (0.60) percent of the dose/g, the “In-vivo radioactivity distribution: brain” value is reported as 0.31 (0.04) percent of the dose/g, the “In-vivo radioactivity distribution: heart” value is reported as 1.48 (0.78) percent of the dose/g and the “In-vivo radioactivity distribution: intestine” value is listed as 4.05 (0.99) percent of the dose/g. Besides, in series [2] (30 min), the “In-vivo radioactivity distribution: kidney” value is given as 4.31 (1.01) percent of the dose/g, the “In-vivo radioactivity distribution: liver” value is given as 5.95 (1.19) percent of the dose/g, the “In-vivo radioactivity distribution: lung” value is 3.53 (0.35) percent of the dose/g and the “In-vivo radioactivity distribution: pancreas” value is 1.95 (0.32) percent of the dose/g. Also, in series [2] (30 min), the “In-vivo radioactivity distribution: spleen” value is reported as 5.01 (1.72) percent of the dose/g and the “In-vivo radioactivity distribution: stomach” value is recorded as 9.81 (6.47) percent of the dose. In series [2] (60 min), the “In-vivo radioactivity distribution: blood” value is given as 2.63 (0.45) percent of the dose/g, the “In-vivo radioactivity distribution: brain” value is 0.21 (0.02) percent of the dose/g, the “In-vivo radioactivity distribution: heart” value is given as 1.65 (0.24) percent of the dose/g and the “In-vivo radioactivity distribution: intestine” value is on record as 4.69 (1.64) percent of the dose/g. Also, in series [2] (60 min), the “In-vivo radioactivity distribution: kidney” value is listed as 2.44 (0.35) percent of the dose/g, the “In-vivo radioactivity distribution: liver” value is on record as 4.96 (1.27) percent of the dose/g, the “In-vivo radioactivity distribution: lung” value is recorded as 2.87 (0.46) percent of the dose/g and the “In-vivo radioactivity distribution: pancreas” value is on record as 1.86 (0.27) percent of the dose/g. Further, in series [2] (60 min), the “In-vivo radioactivity distribution: spleen” value was 3.03 (0.31) percent of the dose/g and the “In-vivo radioactivity distribution: stomach” value is given as 8.73 (4.21) percent of the dose. In series [3], the Ki was 3.9 ± 0.4 nM. The Ki in series [4] came out at 4 nM. Moreover, the “binding property to senile plaque amyloid and vascular amyloid on brain tissue sections” value in series [5] is reported as “stronger than that of fluorine-containing chalcone derivatives”.

In general, Ki refers to a dissociation constant, usually derived from enzyme kinetics or from competition with a known ligand.
